This is an account of results in patent US20230000995A1, “DOLASTATIN 10 ANALOG” (Ariel Scientific Innovations Ltd., priority 2020, published 2023).

Read-outs that look alike come from different tables or passages of the source. Where a SMILES comes first, the peptide text is derived from it. [ ]: non-standard residue; d: D form. Dolaproine = CO[C@@H]([C@@H]1CCCN1)[C@@H](C)C(=O)O; Dil = CC[C@H](C)[C@H](NC)[C@@H](CC(=O)O)OC; Phe(ol) = N[C@H](CO)Cc1ccccc1; NMeV = CN[C@H](C(=O)O)C(C)C

The test system of data set [1] is WM266-4 (malignant melanoma cell line). Briefly: In vitro cytotoxicity, XTT assay, 8 days incubation. It counts as cell-based. The settings on record: read-out: IC50 MW266 (8 days). The source says:
(§1) The exemplary dolastatin 10 analog, Dolas-Ol, was subjected to an in vitro assay to test its cytotoxicity towards two cancerous cell lines: WM266-4 (malignant melanoma cell line)) and HCT116 (human colon cancer cell line). The study was design to assess the activity of a dolastatin 10 analog, according to some embodiments of the present invention, compared to other dolastatin 10 derivatives known in the art, Auristatin F, Auristatin F-Ol and Dolastatin-CO2H.
(§2) All samples contained DMSO at final concentration<0.05%. Cells cultures were initiated in microplate wells at a concentration of 2-4×10^4 cells/well and the cells were allowed to adhere for 24 h incubation period. At this time the cells were washed, fresh medium containing different concentrations of the tested substances were added and the cells were incubated for additional 8 days. The medium was then removed, all the wells were washed with PBS and cultured for 24 hrs in fresh medium without drugs. The cells were washed again and given a fresh medium containing the XTT reagent and re-incubated for 2-4 h. Absorbence in the wells was measured with a TECAN Infinite M200 ELISA reader at both 480 and 680 nm e, the latter being the background absorbance. The absorbencies were normalized to the absorbance of cells grown in medium and solvent. All the tests were repeated three times in quadruplicates.
On the technique in general: Tetrazolium dyes change colour on reduction, which living cells bring about.

Data set [2] deals with HCT116 (human colon cancer cell line). The data set is described as above. It counts as cell-based. The settings on record: read-out: IC50 HC116 (8 days).
Description: as §1, §2

For data set [3], the system named is L1210 murine leukemia cells. The settings on record: L1210 murine leukemia cells in culture; read-out: IC50 value for cell growth; cited from earlier work.
Data set [4] deals with tubulin. The conditions noted are these: purified tubulin in glutamate; read-out: IC50 for the polymerization of purified tubulin in glutamate; cited from earlier work.
Data set [5] relates to cell lines with overexpressed SSTR2 versus HEK. The conditions noted are these: 1 μM; SSTR2 overexpressing cell lines versus HEK with low expression. On the procedure:
HC116, H1299 and TRAMP C2 cells that overexpressed SSTR2 were incubated for 3 hours with 1 μM doses of the conjugates, according to some embodiments of the present invention, and then the cells were washed and proceed for incubation for the following 8 days. At the end of incubation for 8 days, the metabolic activities of cells were measured using the XTT assay.

For data set [6], the system named is HEK (low SSTR2 expression). Nature of the data set: Growth inhibition by Dolas-Ol conjugates, XTT assay, negative control cells. In kind it is cell-based. The conditions noted are these: 1 μM, 3 hours exposure, then 8 days. On the procedure:
(§3) Table 2 presents the growth inhibition values of octreotide amide, conjugates 8b-d in the cell cultures calculated according to the concentration of 1 μM. The calculation for all values is provided relative to control 100% of GI (for all values, p<0.01).

Data set [7] relates to H1299 cells that overexpressed SSTR2. Briefly: Growth inhibition by Dolas-Ol conjugates, XTT assay. In kind it is cell-based. The settings on record: 1 μM, 3 hours exposure, then 8 days. The method, then: as §3
Data set [8] concerns HC116 cells that overexpressed SSTR2. Described as above. It counts as cell-based. The conditions noted are these: 1 μM, 3 hours exposure, then 8 days. On the procedure: as §3
For data set [9], the system named is TRAMP C2 cells that overexpressed SSTR2. The description is as above. It counts as cell-based. The settings on record: 1 μM, 3 hours exposure, then 8 days. The method, then: as §3
Data set [10] relates to tubulin. The conditions noted are these: cited from earlier work.

In the case of `CC[C@H](C)[C@@H]([C@@H](CC(=O)N1CCC[C@H]1[C@H](OC)[C@@H](C)C(=O)N[C@H](CO)Cc1ccccc1)OC)N(C)C(=O)[C@@H](NC(=O)[C@@H](NC)C(C)C)C(C)C` [Auristatin F- O1] (H-[NMeV]V[Dil][Dolaproine][Phe(ol)]), the IC50 (usually the concentration at which inhibition is half-maximal) stood at 0.05882 ± 5e-05 µM in data set [1] (Homo sapiens, WM 266-4, 192 h) and 0.02971 ± 4e-05 µM in data set [2] (Homo sapiens, HCT-116, 192 h).
As for `CC[C@]1(O)C[C@@H]2CN(CCc3c([nH]c4ccccc34)[C@@](C(=O)OC)(c3cc4c(cc3OC)N(C)[C@H]3[C@@](O)(C(=O)OC)[C@H](OC(C)=O)[C@]5(CC)C=CCN6CC[C@]43[C@@H]65)C2)C1` [vinblastine], the half-inhibitory concentration (IC50) in [3] is 0.02 µM; in data set [4], […].
In the case of `COc1cc2cc(c1Cl)N(C)C(=O)C[C@H](OC(=O)[C@H](C)N(C)C(C)=O)[C@]1(C)O[C@H]1[C@H](C)[C@@H]1C[C@@](O)(NC(=O)O1)[C@H](OC)/C=C/C=C(\C)C2` [maytansine], the IC50 in data set [3] was 0.0005 µM; in data set [4], 3.5 µM.
For `CC[C@H](C)[C@@H]([C@@H](CC(=O)N1CCC[C@H]1[C@H](OC)[C@@H](C)C(=O)N[C@@H](Cc1ccccc1)c1nc(C(=O)O)cs1)OC)N(C)C(=O)[C@@H](NC(=O)[C@H](C(C)C)N(C)C)C(C)C` [Dolastatin- CO2H], the IC50 in [1] (Homo sapiens, WM 266-4, 192 h) was found to be 0.03175 ± 2e-05 µM; in data set [2] (Homo sapiens, HCT-116, 192 h), 0.0525 ± 3e-05 µM.
Take `C[C@@H](O)[C@H](NC(=O)[C@@H]1CSSC[C@H](NC(=O)[C@H](N)Cc2ccccc2)C(=O)N[C@@H](Cc2ccccc2)C(=O)N[C@H](Cc2c[nH]c3ccccc23)C(=O)N[C@@H](CCCCN)C(=O)N[C@@H]([C@@H](C)O)C(=O)N1)C(N)=O` [Octreotide amide]: the “cytotoxicity (in words)” value in [5] is “not cytotoxic”. Besides, the “growth inhibition, HEK as negative control” value in data set [6] stood at 7.9%. Moreover, the “growth inhibition, H1299-8 days” value in data set [7] is 8.4%. The “growth inhibition, HC116-8 days” value in [8] turned out to be 6.1%. Moreover, the “growth inhibition, TRAMP C2-8 days” value in data set [9] amounted to 6.5%.
With `CC[C@H](C)[C@@H]([C@@H](CC(=O)N1CCC[C@H]1[C@H](OC)[C@@H](C)C(=O)N[C@@H](Cc1ccccc1)c1nccs1)OC)N(C)C(=O)[C@@H](NC(=O)[C@H](C(C)C)N(C)C)C(C)C` [Dolastatin 10], the “inhibition of the binding of radiolabeled vinblastine and vincristine to tubulin” value in data set [10] is “strongest inhibitor”. For the same compound, the IC50 in data set [3] is 0.0005 µM; in [4], 1.2 µM.
For `CC[C@H](C)[C@@H]([C@@H](CC(=O)N1CCC[C@H]1[C@H](OC)[C@@H](C)C(=O)N[C@@H](Cc1ccccc1)C(=O)O)OC)N(C)C(=O)[C@@H](NC(=O)[C@@H](NC)C(C)C)C(C)C` (H-[NMeV]V[Dil][Dolaproine]F-OH), the IC50 stood at 0.01559 ± 3e-05 µM in data set [1] (Homo sapiens, WM 266-4, 192 h) and 0.01827 ± 6e-05 µM in [2] (Homo sapiens, HCT-116, 192 h).
Consider `CO[C@@H](/C(C)=C/C=C/C(C)=C/c1coc(C)n1)[C@@H](C)[C@@H]1C[C@H](O)[C@@]2(C)O[C@@H]2/C=C/[C@@H](C)[C@H]2C[C@H](CC(=O)O2)C[C@@H]2O[C@H]2C(=O)O1` [rhizoxin], for which the IC50 was 0.001 µM in [3] and 6.8 µM in data set [4].
As for “(2S)-2-((S)-2-(dimethylamino)-3-methylbutanamido)-N-((3R,4S,5S)-1-((2S)-2-((1R,2R)-3-((1-(5-(hydroxymethyl)thiazol-2-yl)-2-phenylethyl)amino)-1-methoxy-2-methyl-3-oxopropyl)pyrrolidin-1-yl)-3-methoxy-5-methyl-1-oxoheptan-4-yl)-N,3-dimethylbutanamide [Dolas-O1]”, the IC50 is 0.00224 ± 3e-05 µM in data set [1] and 0.00367 ± 3e-05 µM in data set [2].
Take `C=C(C)[C@@H]1NC(=O)[C@@H](NC)[C@@H](O)c2cc(Cl)c(O)c(c2)O[C@](C)(CC)[C@@H](C(=O)N2CC=C[C@H]2C(=O)N/C(C(=O)N/C(=C/C(=O)O)C(=O)O)=C(\C)CC)NC1=O` [phomopsin A]: the results for the IC50 in data set [3] and in [4] were 7 µM and 1.4 µM, respectively.
